≈ marks a conversion by molar mass, not a printed value. Read-outs that look alike come from different tables or passages of the source.
What was measured:
[1] = tested on: E. coli R^+ TEM(β-lactamase carrier); assay: In vitro MIC, series dilution test in microtiter system; type: cell-based; settings: Escherichia coli, read-out: minimum inhibitory concentration (MIC)
Procedure: (§1) For the tests, the method of the series dilution test in the microtiter system was used. The substances were tested for bacteriostasis in a liquid medium. The bacteriostatic activity was tested at the following concentration: 128; 64; 32; 16; 8; 4; 2; 1; 0.5; 0.25; 0.12; 0.06 μg/ml.
(§2) A nutrient medium having the following composition was used: 10 gm of peptone, 8 gm of meat extract oxoid, 3 gm of sodium chloride, 2 gm of sec. sodium phosphate are made up to […] with distilled water (pH 7.2 to 7.4). The age of the primary cultures was about 20 hours.
(§3) The bacterial suspension was adjusted, using the photometer (according to "Eppendorf") (test tube diameter 14 mm, filter 546 nm) by reference to the turbidity of a barium sulfate comparison suspension which was produced by a barium sulfate suspension formed by the addition of 3.0 ml of 1% barium chloride solution to 97 ml of 1% sulfuric acid. After adjustment, Streptococcus aronson was diluted in the ratio 1:15 and the other test pathogens were diluted in the ratio 1:1500 with a common salt solution.
(§4) 16 mg of the test substance were weighed in 10 ml measuring flasks and solvent was added up to the mark. Further dilutions in the series were made with distilled water or the solvent in question.
(§5) The depressions in the microtiter plates were filled with 0.2 ml of nutrient medium, 0.01 ml of the corresponding diluted substance and a drop of bacterial suspension (0.01 ml), and incubated for 18 to 20 hours at 37° C. A solvent check was carried out continuously at the same time.
(§6) The reading was taken macroscopically, and the respective limiting concentration (=the lower concentration still having bateriostatic activity) was determined.
(§7) The following were used as test organisms:
(§8) Escherichia coli ATCC 11 775, Serratia marcescens ATCC 13 880, Klebsiella pneumoniae ATCC 10 031 and BC 6, Proteus Mirabilis BC 17, Proteus rettgeri BC 7, Enterobacter cloacae ATCC 13 047, E. coli R^+ TEM(β-lactamase carrier) and K. pneumoniae 1088 E (β-lactamase carrier).
(§9) Table 1 which follows lists the minimum inhibitory concentrations (MIC) determined for typical representatives of the compounds according to the invention. These are the sodium salts of compounds of the formula I, where A=p-hydroxyphenyl and R is defined as follows: […]

[2] = tested on: Enterobacter cloacae ATCC 13 047; assay: as above; type: cell-based; settings: Eb. cloac. ATCC 13047, 18 to 20 hours at 37° C., read-out: minimum inhibitory concentration (MIC)
Procedure: as §1, §2, §3, §4, §5, §6, §7, §8, §9

[3] = tested on: Escherichia coli ATCC 11 775; assay: as above; type: cell-based; settings: E. coli ATCC 11775, 18 to 20 hours at 37° C., read-out: minimum inhibitory concentration (MIC)
Procedure: as §1, §2, §3, §4, §5, §6, §7, §8, §9

[4] = tested on: K. pneumoniae 1088 E (β-lactamase carrier); assay: as above; type: cell-based; settings: Klebsiella pneumoniae, K. pneum. 1088 E, 18 to 20 hours at 37° C., read-out: minimum inhibitory concentration (MIC)
Procedure: as §1, §2, §3, §4, §5, §6, §7, §8, §9

[5] = tested on: Klebsiella pneumoniae ATCC 10 031; assay: as above; type: cell-based; settings: K. pneum. ATCC 10031, 18 to 20 hours at 37° C., read-out: minimum inhibitory concentration (MIC)
Procedure: as §1, §2, §3, §4, §5, §6, §7, §8, §9

[6] = tested on: Klebsiella pneumoniae BC 6; assay: as above; type: cell-based; settings: BC6, K. pneum. BC 6, 18 to 20 hours at 37° C., read-out: minimum inhibitory concentration (MIC)
Procedure: as §1, §2, §3, §4, §5, §6, §7, §8, §9

Proteus Mirabilis BC 17 = assay: as above; type: cell-based; settings: Prot. mir. BC 17, 18 to 20 hours at 37° C., read-out: minimum inhibitory concentration (MIC)
Procedure: as §1, §2, §3, §4, §5, §6, §7, §8, §9

Proteus rettgeri BC 7 = assay: as above; type: cell-based; settings: Providencia rettgeri, BC7; Prot. rettg. BC 7; 18 to 20 hours at 37° C.; read-out: minimum inhibitory concentration (MIC)
Procedure: as §1, §2, §3, §4, §5, §6, §7, §8, §9

[7] = tested on: Serratia marcescens ATCC 13 880; assay: as above; type: cell-based; settings: Serr. marc. ATCC 13880, 18 to 20 hours at 37° C., read-out: minimum inhibitory concentration (MIC)
Procedure: as §1, §2, §3, §4, §5, §6, §7, §8, §9

[8] = tested on: 20 Serratia marcescens carrying β-lactamase; assay: In vitro activity against 20 Serratia marcescens carrying β-lactamase, compared with Temocillin; type: cell-based; settings: Serr. marc. (20)
Procedure: as §1, §2, §3, §4, §5, §6

E. coli ATCC 11775 = assay: In vivo test on experimental E. coli infection in mice; set-up: species or system E. coli; female mice of the NMRI strain; settings: Escherichia coli, ATCC11775, sc, 168 h, subcutaneous, one treatment 1 hour post infectionem, observation period 7 days, read-out: ED50 (dose at which 50% of the animals survived)
Procedure: A number of the compounds according to the invention were tested in vivo on experimental infections in mice. E. coli ATCC 11775 were used as the pathogenic bacteria. An intraperitoneal infection was produced with 0.2 ml of a 5% mucin suspension of the bacteria. This corresponds to about 1.4×10^6 E. coli bacteria per mouse. Female mice of the NMRI strain were divided up into groups of 10 animals, two groups were untreated, the other groups were treated subcutaneously with various doses of the penicillin according to the invention, to determine the ED50 (dose at which 50% of the animals survived). One treatment was given (1 hour post infectionem).
In both cases, the observation period was 7 days. The results of these tests with 2 representatives of the penicillins according to the invention, compared with Temocillin, are shown in Table 3 which follows: […]

[9] = inoculum 5 × 10^4, read-out: Geometric Mean (MIC)
[10] = inoculum 5 × 10^4, read-out: MIC Range
[11] = inoculum 5 × 10^6, read-out: Geometric Mean (MIC)

CO[C@@]1(NC(=O)C(C(=O)O)c2ccsc2)C(=O)N2[C@@H](C(=O)O)C(C)(C)S[C@@H]21 (stereo partly drawn) [Compound E, Temocillin, reference compound]
MIC [1]: 8 µg/mL (≈ 19.3 µM)
MIC [2]: 4 µg/mL (≈ 9.65 µM)
MIC [3]: 4 µg/mL (≈ 9.65 µM)
MIC [4]: 4 µg/mL (≈ 9.65 µM)
MIC [5]: 4 µg/mL (≈ 9.65 µM)
MIC [6]: 2 µg/mL (≈ 4.83 µM)
MIC (Proteus Mirabilis BC 17): 2 µg/mL (≈ 4.83 µM)
MIC (Proteus rettgeri BC 7): 4 µg/mL (≈ 9.65 µM)
MIC [7]: 8 µg/mL (≈ 19.3 µM)
MIC [8, 9]: 10.2 µg/mL (≈ 24.6 µM)
MIC [8, 10]: 8 to 16 µg/mL (≈ 19.3 to 38.6 µM)
MIC [8, 11]: 24.3 µg/mL (≈ 58.6 µM)
ED50 (E. coli ATCC 11775): > 20 mg/kg

CO[C@@]1(NC(=O)C(NC(=O)Nc2cnc(Nc3ccc(S(N)(=O)=O)cc3)nc2O)c2ccc(O)cc2)C(=O)N2[C@@H](C(=O)O)C(C)(C)S[C@@H]21 (stereo partly drawn) [A]
MIC [1]: 1 µg/mL (≈ 1.42 µM)
MIC [2]: 1 µg/mL (≈ 1.42 µM)
MIC [3]: 1 µg/mL (≈ 1.42 µM)
MIC [4]: 4 µg/mL (≈ 5.69 µM)
MIC [5]: 1 µg/mL (≈ 1.42 µM)
MIC [6]: 1 µg/mL (≈ 1.42 µM)
MIC (Proteus Mirabilis BC 17): 1 µg/mL (≈ 1.42 µM)
MIC (Proteus rettgeri BC 7): 2 µg/mL (≈ 2.85 µM)
MIC [7]: 1 µg/mL (≈ 1.42 µM)
MIC [8, 9]: 2.8 µg/mL (≈ 3.98 µM)
MIC [8, 10]: 2 to 8 µg/mL (≈ 2.85 to 11.4 µM)
MIC [8, 11]: 10.2 µg/mL (≈ 14.5 µM)
MIC ([8]; inoculum 5 × 10^6, read-out: MIC Range): 4 to 32 µg/mL (≈ 5.69 to 45.5 µM)
ED50 (E. coli ATCC 11775): 4 mg/kg

CO[C@@]1(NC(=O)C(NC(=O)Nc2cnc(NCc3ccc(S(N)(=O)=O)s3)nc2O)c2ccc(O)cc2)C(=O)N2[C@@H](C(=O)O)C(C)(C)S[C@@H]21 (stereo partly drawn) [C]
MIC [1]: 2 µg/mL (≈ 2.77 µM)
MIC [2]: 1 µg/mL (≈ 1.38 µM)
MIC [3]: 1 µg/mL (≈ 1.38 µM)
MIC [4]: 8 µg/mL (≈ 11.1 µM)
MIC [5]: 1 µg/mL (≈ 1.38 µM)
MIC [6]: 1 µg/mL (≈ 1.38 µM)
MIC (Proteus Mirabilis BC 17): 0.12 µg/mL (≈ 0.166 µM)
MIC (Proteus rettgeri BC 7): 2 µg/mL (≈ 2.77 µM)
MIC [7]: 2 µg/mL (≈ 2.77 µM)

CO[C@@]1(NC(=O)C(NC(=O)Nc2cnc(NCc3ccc(S(N)(=O)=O)cc3)nc2O)c2ccc(O)cc2)C(=O)N2[C@@H](C(=O)O)C(C)(C)S[C@@H]21 (stereo partly drawn) [D]
MIC [1]: 2 µg/mL (≈ 2.79 µM)
MIC [2]: 1 µg/mL (≈ 1.4 µM)
MIC [3]: 2 µg/mL (≈ 2.79 µM)
MIC [4]: 8 µg/mL (≈ 11.2 µM)
MIC [5]: 1 µg/mL (≈ 1.4 µM)
MIC [6]: 1 µg/mL (≈ 1.4 µM)
MIC (Proteus Mirabilis BC 17): 0.5 µg/mL (≈ 0.698 µM)
MIC (Proteus rettgeri BC 7): 4 µg/mL (≈ 5.58 µM)
MIC [7]: 2 µg/mL (≈ 2.79 µM)

From patent US4454128A, “6α-Methoxy-penicillins” (Dr. Karl Thomae GmbH, priority 1981, dated 1984)
